These results are taken from ChEMBL document CHEMBL5154682, “TDP-43 Modulation by Tau-Tubulin Kinase 1 Inhibitors: A New Avenue for Future Amyotrophic Lateral Sclerosis Therapy” (J Med Chem, 2022).

Each structure is given as a SMILES string. Calls of active or inactive are those of the source. The rule behind the calls is not given here.

In series [1] the test system is SH-SY5Y. Put plainly: Neuroprotective activity against okadaic acid-induced neurotoxicity in human SH-SY5Y cells assessed as reduction in Tau hyperphosphorylation by measuring cell viability at 1 to 5 uM incubated for 24 hrs by MTT assay. The conditions noted are these: dose 1-5 µM. Type of series: functional, cell-based. (Tetrazolium dyes change colour on reduction, which living cells bring about.)

The nature of series [2]: Permeability of the compound at pH 7.4 PBS/EtOH buffer (70:30) by PAMPA-BBB assay. (In general: In PAMPA a lipid-coated filter parts donor from acceptor wells.)
The subject of series [3] is SH-SY5Y. Put plainly: Neuroprotective activity against ethacrynic acid-induced neurotoxicity human SH-SY5Y cells assessed as increase in cell viability at 5 uM preincubated for 1 hr followed by ethacrynic acid addition and further incubated for 24 hrs by MTT assay. Type of series: functional, cell-based. As to conditions: time 25.0 hrs.
For series [4], the system named is SH-SY5Y. Description: Neuroprotective activity against ethacrynic acid-induced neurotoxicity human SH-SY5Y cells assessed as decrease in TDP-43 phosphorylation at Ser409 at 5 uM preincubated for 1 hr followed by EA addition and further incubated for 24 hrs by Western blot analysis. Type of series: functional, cell-based. The conditions noted are these: time 25.0 hrs. Background: A western blot detects proteins with antibodies after separation by electrophoresis.

Series [5] deals with T1, Tau-tubulin kinase 1 (Homo sapiens, UniProt Q5TCY1). Put plainly: Inhibition of TTBK1 in sporadic ALS patient derived human lymphoblasts assessed as reduction in cytosolic TDP-43 levels at 5 to 10 uM treated for 24 hrs by Western blot analysis. Type of series: cell-based. As to conditions: Lymphoblastoid cell, dose 5-10 µM.
The target in series [6] is T1, Tau-tubulin kinase 1. Put plainly: Inhibition of TTBK1 in sporadic ALS patient derived human lymphoblasts assessed as recovery nuclear localization of TDP-43 levels at 5 to 10 uM treated for 24 hrs by Western blot analysis. Type of series: cell-based. The conditions noted are these: Lymphoblastoid cell, dose 5-10 µM.
For series [7], the target named is T2, Tau-tubulin kinase 2 (Homo sapiens, UniProt Q6IQ55). The conditions noted are these: dose 10.0 µM, time 30.0 min.
Series [8] deals with T1, Tau-tubulin kinase 1. Description: Inhibition of TTBK1 in sporadic ALS patient derived human lymphoblasts assessed as reduction in TDP-43 phosphorylation levels at 5 to 10 uM treated for 24 hrs by Western blot analysis. Type of series: cell-based. The conditions noted are these: Lymphoblastoid cell, dose 5-10 µM.
Series [9] has as its target T2, Tau-tubulin kinase 2. Description: Inhibition of TTBK2 (unknown origin).
Series [10] is described as follows: Half life in BALB/c mouse brain at 5 mg/kg, ip measured for 0.08 to 24 hrs by LC-MS/MS analysis. Type of series: ADME, organism-based. The conditions noted are these: time 0.08-24 hrs.
The subject of series [11] is Mus musculus. Put plainly: Immunomodulatory effect in Prp-hTDP-43 (A315T) transgenic mouse assessed as increase in […] expression in lumbar region of spinal cord at 5 mg/kg, ip qd for 30 days by western blot analysis. Type of series: functional, organism-based. As to conditions: time 30.0 day.
The nature of series [12]: Permeability coefficient in BALB/c mouse assessed as brain to plasma ratio at 5 mg/kg, ip measured for 0.08 to 24 hrs by LC-MS/MS analysis. Type of series: ADME, organism-based. The conditions noted are these: time 0.08-24 hrs.
Series [13] in a line: Half life in BALB/c mouse plasma at 10 mg/kg, po measured for 0.25 to 24 hrs by LC-MS/MS analysis. Type of series: ADME, organism-based. The conditions noted are these: time 0.25-24 hrs.
Series [14] is described as follows: Tmax in BALB/c mouse brain at 10 mg/kg, po measured for 0.25 to 24 hrs by LC-MS/MS analysis. Type of series: ADME, organism-based. As to conditions: time 0.25-24 hrs.
The nature of series [15]: Tmax in BALB/c mouse plasma at 10 mg/kg, po measured for 0.25 to 24 hrs by LC-MS/MS analysis. Type of series: ADME, organism-based. The conditions noted are these: time 0.25-24 hrs.
A short description of series [16]: Tmax in BALB/c mouse plasma at 5 mg/kg, ip measured for 0.08 to 24 hrs by LC-MS/MS analysis. Type of series: ADME, organism-based. As to conditions: time 0.08-24 hrs.
Series [17] is described as follows: Half life in BALB/c mouse brain at 10 mg/kg, po measured for 0.25 to 24 hrs by LC-MS/MS analysis. The conditions noted are these: time 0.25-24 hrs. Type of series: ADME, organism-based.
The nature of series [18]: AUClast in BALB/c mouse plasma at 5 mg/kg, ip measured for 0.08 to 24 hrs by LC-MS/MS analysis. Type of series: ADME, organism-based. Also on record: dose 5 mg/kg, time 0.08-24 hrs, route ip.
Series [19] can be described thus: Cmax in BALB/c mouse plasma at 5 mg/kg, ip measured for 0.08 to 24 hrs by LC-MS/MS analysis. Type of series: ADME, organism-based. Details: dose 5 mg/kg, time 0.08-24 hrs, route ip.
The nature of series [20]: Cmax in BALB/c mouse brain at 10 mg/kg, po measured for 0.25 to 24 hrs by LC-MS/MS analysis. Type of series: ADME, organism-based. Also on record: dose 10 mg/kg, time upper 24 hrs, time lower 0.25 hrs, route po.
Series [21] deals with Mus musculus. Put plainly: Prevention of TDP-43 phosphorylation level in Wild type mouse at lumbar region of spinal cord tissue at 5 mg/kg, ip qd for 30 days by Immunoblot assay. As to conditions: time 30.0 day. Type of series: functional, organism-based.
In series [22] the test system is Mus musculus. Put plainly: Immunomodulatory effect in Prp-hTDP-43 (A315T) transgenic mouse assessed as decrease in Iba-1 immunoreactivity in microglial cells at 5 mg/kg, ip qd for 30 days by immunofluorescence analysis. The conditions noted are these: time 30.0 day. Type of series: functional, organism-based.
Series [23] in a line: Tmax in BALB/c mouse brain at 5 mg/kg, ip measured for 0.08 to 24 hrs by LC-MS/MS analysis. Type of series: ADME, organism-based. As to conditions: time 0.08-24 hrs.
Series [24] concerns the target T1, Tau-tubulin kinase 1. Put plainly: Inhibition of recombinant human TTBK1 in ethacrynic acid-treated human SH-SY5Y cells assessed as nuclear localization by measuring reduction in cytosolic TDP-43 accumulation at 5 uM preincubated for 1 hr followed by EA addition and further incubated for 24 hrs by confocal laser scanning microscopy. The conditions noted are these: time 25.0 hrs.

The target of series [25] is Tau tubulin kinase 1 (Rattus norvegicus) (UniProt A0A0G2JTK1). Description: Inhibition of TTBK1 in Wistar rat primary microglia assessed as reduction in LPS-stimulated iNOS induction at 5 to 25 uM measured after 24 hrs by western blot analysis. Type of series: cell-based. The conditions noted are these: dose 5-25 µM.
Series [26] is described as follows: Cmax in BALB/c mouse brain at 5 mg/kg, ip measured for 0.08 to 24 hrs by LC-MS/MS analysis. Type of series: ADME, organism-based. Details: dose 5 mg/kg, time upper 24 hrs, time lower 0.08 hrs, route ip.
The subject of series [27] is Mus musculus. Description: Protection of neuron degeneration in Prp-hTDP-43 (A315T) transgenic mouse assessed as prevention of reduction in number of motor neurons in ventral horn of spinal cord at 5 mg/kg, ip qd for 30 days by Nissl staining based immunohistochemistry analysis. Type of series: functional, organism-based. As to conditions: time 30.0 day.
In series [28] the test system is Mus musculus. Put plainly: Protection of neuron degeneration in Prp-hTDP-43 (A315T) transgenic mouse assessed as prevention of reduction in number of motor neurons in ventral horn of spinal cord at 5 mg/kg, ip qd for 30 days by choline acetyl transferase staining based immunohistochemistry analysis. The conditions noted are these: time 30.0 day. Type of series: functional, organism-based.

The nature of series [29]: Cmax in BALB/c mouse plasma at 10 mg/kg, po measured for 0.25 to 24 hrs by LC-MS/MS analysis. Also on record: time upper 24 hrs, time lower 0.25 hrs, dose 10 mg/kg, route po. Type of series: ADME, organism-based.
Series [30] can be described thus: AUClast in BALB/c mouse brain at 10 mg/kg, po measured for 0.25 to 24 hrs by LC-MS/MS analysis. Details: dose 10 mg/kg, time 0.25-24 hrs, route po. Type of series: ADME, organism-based.
A short description of series [31]: AUClast in BALB/c mouse plasma at 10 mg/kg, po measured for 0.25 to 24 hrs by LC-MS/MS analysis. Type of series: ADME, organism-based. Details: dose 10 mg/kg, time upper 24 hrs, time lower 0.25 hrs, route po.
Series [32] has as its system Mus musculus. Put plainly: Immunomodulatory effect in Prp-hTDP-43 (A315T) transgenic mouse assessed as decrease in GFAP immunoreactivity in astrocytes at 5 mg/kg, ip qd for 30 days by immunofluorescence analysis. Type of series: functional, organism-based. The conditions noted are these: time 30.0 day.
Series [33] is described as follows: Half life in BALB/c mouse plasma at 5 mg/kg, ip measured for 0.08 to 24 hrs by LC-MS/MS analysis. Type of series: ADME, organism-based. The conditions noted are these: time 0.08-24 hrs.
Series [34] in a line: AUClast in BALB/c mouse brain at 5 mg/kg, ip measured for 0.08 to 24 hrs by LC-MS/MS analysis. Also on record: dose 5 mg/kg, time 0.08-24 hrs, route ip. Type of series: ADME, organism-based.
A short description of series [35]: Permeability in BALB/c mouse assessed as brain to plasma ratio at 10 mg/kg, po measured for 0.25 to 24 hrs by LC-MS/MS analysis. The conditions noted are these: time 0.25-24 hrs. Type of series: ADME, organism-based.
Series [36] deals with Mus musculus. Put plainly: Immunomodulatory effect in Prp-hTDP-43 (A315T) transgenic mouse assessed as reduction in iNOS expression in lumbar region of spinal cord at 5 mg/kg, ip qd for 30 days by Western blot analysis. Type of series: functional, organism-based. The conditions noted are these: time 30.0 day.
The target of series [37] is T1, Tau-tubulin kinase 1.

T2 sequence (Q6IQ55 whole entry): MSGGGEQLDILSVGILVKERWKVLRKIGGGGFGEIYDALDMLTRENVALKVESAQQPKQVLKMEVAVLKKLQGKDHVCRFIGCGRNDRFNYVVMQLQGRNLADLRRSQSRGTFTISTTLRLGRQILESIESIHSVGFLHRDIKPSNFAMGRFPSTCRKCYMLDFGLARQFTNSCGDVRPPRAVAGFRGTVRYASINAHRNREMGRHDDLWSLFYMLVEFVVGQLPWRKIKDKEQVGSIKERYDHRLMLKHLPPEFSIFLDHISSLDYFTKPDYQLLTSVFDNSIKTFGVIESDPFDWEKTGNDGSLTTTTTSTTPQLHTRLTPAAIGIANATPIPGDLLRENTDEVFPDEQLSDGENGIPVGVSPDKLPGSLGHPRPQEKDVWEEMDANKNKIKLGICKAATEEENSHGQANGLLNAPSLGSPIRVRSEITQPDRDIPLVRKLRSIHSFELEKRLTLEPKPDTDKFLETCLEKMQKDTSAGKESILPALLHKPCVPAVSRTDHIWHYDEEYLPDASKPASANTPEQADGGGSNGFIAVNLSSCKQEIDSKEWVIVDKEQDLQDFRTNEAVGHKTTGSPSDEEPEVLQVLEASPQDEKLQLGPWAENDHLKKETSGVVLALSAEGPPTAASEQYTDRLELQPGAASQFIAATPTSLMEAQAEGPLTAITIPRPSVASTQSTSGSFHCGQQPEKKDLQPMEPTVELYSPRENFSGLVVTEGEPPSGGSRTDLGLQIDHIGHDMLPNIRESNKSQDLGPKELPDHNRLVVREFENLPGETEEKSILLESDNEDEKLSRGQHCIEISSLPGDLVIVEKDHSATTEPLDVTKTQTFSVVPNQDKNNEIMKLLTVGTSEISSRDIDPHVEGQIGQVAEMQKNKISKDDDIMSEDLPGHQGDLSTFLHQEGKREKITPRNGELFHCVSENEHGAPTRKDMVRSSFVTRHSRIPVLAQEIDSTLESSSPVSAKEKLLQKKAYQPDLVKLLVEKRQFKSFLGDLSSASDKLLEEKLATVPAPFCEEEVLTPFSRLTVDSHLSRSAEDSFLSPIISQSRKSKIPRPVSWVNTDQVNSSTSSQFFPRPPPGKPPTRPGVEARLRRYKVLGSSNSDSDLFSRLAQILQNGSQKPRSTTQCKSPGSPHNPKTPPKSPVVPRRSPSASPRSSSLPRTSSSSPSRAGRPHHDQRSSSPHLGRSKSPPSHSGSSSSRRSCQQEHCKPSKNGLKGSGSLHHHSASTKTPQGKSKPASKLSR
T1 sequence (Q5TCY1 whole entry): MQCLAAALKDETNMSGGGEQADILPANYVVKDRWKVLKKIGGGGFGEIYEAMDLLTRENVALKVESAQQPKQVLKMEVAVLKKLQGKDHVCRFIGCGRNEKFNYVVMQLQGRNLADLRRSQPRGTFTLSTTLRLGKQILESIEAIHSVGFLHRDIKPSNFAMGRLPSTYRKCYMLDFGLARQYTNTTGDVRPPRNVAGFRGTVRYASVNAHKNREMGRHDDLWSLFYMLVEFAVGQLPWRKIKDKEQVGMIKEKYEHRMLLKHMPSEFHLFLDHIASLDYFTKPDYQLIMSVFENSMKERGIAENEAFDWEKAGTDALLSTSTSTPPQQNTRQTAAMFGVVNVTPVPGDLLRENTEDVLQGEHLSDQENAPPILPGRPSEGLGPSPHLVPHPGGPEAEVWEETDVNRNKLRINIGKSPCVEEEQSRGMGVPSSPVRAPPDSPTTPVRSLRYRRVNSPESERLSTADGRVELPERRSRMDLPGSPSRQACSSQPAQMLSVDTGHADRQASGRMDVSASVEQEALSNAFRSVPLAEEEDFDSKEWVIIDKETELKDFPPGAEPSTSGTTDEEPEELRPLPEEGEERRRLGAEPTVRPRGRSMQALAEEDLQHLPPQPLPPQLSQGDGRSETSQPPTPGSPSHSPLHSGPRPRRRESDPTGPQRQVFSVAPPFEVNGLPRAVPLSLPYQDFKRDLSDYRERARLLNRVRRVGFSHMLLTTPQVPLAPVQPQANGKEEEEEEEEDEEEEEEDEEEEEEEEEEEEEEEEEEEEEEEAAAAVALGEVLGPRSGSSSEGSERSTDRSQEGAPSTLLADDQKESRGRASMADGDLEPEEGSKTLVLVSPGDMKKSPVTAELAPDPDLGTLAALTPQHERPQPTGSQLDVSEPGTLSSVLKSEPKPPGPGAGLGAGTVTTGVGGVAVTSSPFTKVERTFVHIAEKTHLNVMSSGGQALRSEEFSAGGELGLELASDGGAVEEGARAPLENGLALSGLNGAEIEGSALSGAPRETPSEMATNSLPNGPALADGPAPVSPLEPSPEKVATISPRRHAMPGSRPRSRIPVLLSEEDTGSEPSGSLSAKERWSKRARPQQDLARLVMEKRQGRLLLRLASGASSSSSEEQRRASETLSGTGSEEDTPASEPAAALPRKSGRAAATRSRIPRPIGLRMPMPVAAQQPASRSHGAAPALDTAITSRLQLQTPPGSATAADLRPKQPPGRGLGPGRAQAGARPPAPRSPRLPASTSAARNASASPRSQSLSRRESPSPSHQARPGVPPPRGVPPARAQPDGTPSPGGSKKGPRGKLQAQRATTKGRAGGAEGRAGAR
Tau tubulin kinase 1 (Rattus norvegicus), sequence (A0A0G2JTK1 as listed by the source): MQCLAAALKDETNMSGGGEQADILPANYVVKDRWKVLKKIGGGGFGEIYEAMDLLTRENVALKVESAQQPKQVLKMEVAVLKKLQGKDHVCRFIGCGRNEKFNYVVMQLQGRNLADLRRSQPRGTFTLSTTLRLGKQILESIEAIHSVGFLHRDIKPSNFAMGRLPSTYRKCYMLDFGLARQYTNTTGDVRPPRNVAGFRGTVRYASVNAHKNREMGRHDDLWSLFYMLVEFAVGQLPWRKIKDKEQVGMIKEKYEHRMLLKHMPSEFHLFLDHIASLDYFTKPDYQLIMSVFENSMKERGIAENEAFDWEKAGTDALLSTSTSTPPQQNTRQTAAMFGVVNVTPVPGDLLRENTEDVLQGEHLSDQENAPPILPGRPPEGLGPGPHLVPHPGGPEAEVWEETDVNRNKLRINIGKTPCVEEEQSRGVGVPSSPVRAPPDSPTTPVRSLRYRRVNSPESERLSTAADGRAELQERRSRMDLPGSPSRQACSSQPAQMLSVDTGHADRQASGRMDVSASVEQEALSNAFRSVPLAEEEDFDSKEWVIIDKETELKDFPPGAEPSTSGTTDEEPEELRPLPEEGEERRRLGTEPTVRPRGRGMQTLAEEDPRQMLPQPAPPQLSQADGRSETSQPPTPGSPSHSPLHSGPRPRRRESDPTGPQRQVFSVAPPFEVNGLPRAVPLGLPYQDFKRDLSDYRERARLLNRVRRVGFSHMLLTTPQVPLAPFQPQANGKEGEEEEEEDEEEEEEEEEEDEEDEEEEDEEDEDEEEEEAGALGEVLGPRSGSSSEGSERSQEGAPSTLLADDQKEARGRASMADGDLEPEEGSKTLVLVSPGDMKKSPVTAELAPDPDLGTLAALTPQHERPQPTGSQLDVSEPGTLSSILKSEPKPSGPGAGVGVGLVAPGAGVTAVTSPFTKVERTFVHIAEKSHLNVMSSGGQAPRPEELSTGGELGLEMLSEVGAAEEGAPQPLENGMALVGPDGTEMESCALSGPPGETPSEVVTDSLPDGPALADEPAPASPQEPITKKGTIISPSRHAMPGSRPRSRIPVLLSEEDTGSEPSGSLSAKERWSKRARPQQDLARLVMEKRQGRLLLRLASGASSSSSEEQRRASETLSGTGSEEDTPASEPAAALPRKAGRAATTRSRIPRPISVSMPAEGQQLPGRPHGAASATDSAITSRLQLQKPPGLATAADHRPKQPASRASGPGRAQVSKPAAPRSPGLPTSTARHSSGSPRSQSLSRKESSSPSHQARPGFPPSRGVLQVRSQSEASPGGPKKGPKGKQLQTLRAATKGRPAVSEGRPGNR

For `Clc1cccc(Oc2ccc(Nc3ncnc4[nH]ccc34)cc2)c1`, the outcome in series [1], in [3], in [4], in series [5], in [6] and in [8] was Active. Also, the permeability result in [2] is on record as “Permeable”. In [7], the inhibition was 1%.
Consider `CC1(N)CCN(Cc2ccn3ncnc(Nc4cc(O)cc(Br)c4)c23)CC1`, for which the IC50 in series [9] stood at 170 nM.
As to `Cc1ccc(Oc2ccc(Nc3ncnc4[nH]ccc34)cc2)cc1`, the result in [1], in series [3] and in [4] was Active. The permeability entry in series [2] was “Permeable”.
Turning to `Clc1ccc(Oc2ccc(Nc3ncnc4[nH]ccc34)cc2)cc1`, the half-life in series [10] is 3.46 h; in series [13], 3.3 h; in series [17], 3.4 h; in series [33] it was 3.75 h. Besides, the result in series [11], in series [1], in series [21], in series [22], in series [3] and in series [27] was Active. For the same compound, the outcome in series [4], in series [28], in series [5], in [6], in series [32] and in series [8] was Active. Besides, the result in series [36] was Active. Also, the Kp stood at 2.63 in series [12] and 2.67 in series [35]. Besides, the Tmax in series [14] came out at 2 h; in [15], 2 h; in series [16] it was 1 h; in series [23], 1 h. Also, the AUC(0-t) in series [18] was determined as 5960 ng·h/mL; in series [30] it was 49200 ng·h/mL; in [31], 18400 ng·h/mL; in [34], 15700 ng·h/mL. In addition, the Cmax in series [19] is 1430 ng/mL; in series [20], 4920 ng/mL; in series [26], 4170 ng/mL; in series [29] it was 2270 ng/mL. The permeability result in series [2] is “Permeable”. Besides, the inhibition result in [24] and in series [25] was “Active” in each case.
`CC[C@@](C)(O)C#Cc1cc2c(ccn2-c2cc(OC)nc(N)n2)cn1`: the IC50 came out at 2.7 nM in [9] and 1.6 nM in series [37].

By inhibition is commonly meant the drop in the measured response relative to a control, in per cent. As a reminder, the IC50 is the midpoint of a concentration-inhibition curve. As usually defined, the half-life is the time in which the quantity being followed falls by half. High values mean slow loss, low ones fast loss. The Kp is the ratio of the level in a tissue or fluid to that in plasma or blood. In general, Tmax refers to the time at which the peak concentration occurs. A word on the AUC(0-t): it is exposure summed from dosing to a finite time, without extrapolation to infinity. The Cmax is the maximum level reached in the sampled fluid or tissue.
